System: SK-MEL-2 multi-cell spheroids, viability
Test: Anticancer human tumor SK-MEL-2 cell line growth inhibition [TAK];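 also: spheroids exposed to drugs for seven days before readout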;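 as to viability, T/C: percent of DMSO vehicle control luminescence so 100% = untreated viability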
Conditions: for IC50: curve of first compound; for viability, T/C: stronger effect = lower value
Source text: Combinatorial screen of targeted agents with TAK-243 and ipatasertib in multi-cell type tumor spheroids
A high-throughput screen of multi-cell type tumor spheroids was designed to identify active combinations of targeted small molecules and TAK-243 or ipatasertib. Complex spheroids include a stromal component modeled by human endothelial cells (HUVEC) and fibroblasts modeled by human mesenchymal stem cells (MSCs). The concentration ranges selected for each drug and investigational agent were based upon clinically achievable concentrations if the clinical Cmax of the agent was known.
Compounds. The drugs and investigational agents: TAK-243 (785004), ipatasertib (767898), everolimus (733504), selumetinib (741078), bortezomib (756655), trametinib (758246), ixazomib (758254), vemurafenib (761431), dabrafenib (764134), sapanisertib (764658), alpelisib (765974), and copanlisib (816437), were obtained from the National Cancer Institute (NCI) Developmental Therapeutics Program Chemical Repository. The FDA-approved anticancer drug set is available from the NCI Developmental Therapeutics Program. […] The stock solutions were prepared in dimethyl sulfoxide (DMSO, Sigma-Aldrich, St. Louis, MO, cat. D2650) at 800-fold the tested concentration and stored at -70 degrees C prior to their use. All drugs and investigational agents were tested over a range starting from a high concentration at or near the clinical Cmax and decreasing in half-log increments. If the clinical Cmax for an agent had not been determined, the highest concentration tested was 10 microM.
NCI60 Cell Culture. NCI60 cell lines were obtained from the NCI Developmental Therapeutics Program Tumor Repository. For each lot of cells, the Repository performed Applied Biosystems AmpFLSTR Identifiler testing with PCR amplification to confirm consistency with the published Identifier STR profile for each cell line. Cells were kept in continuous culture for no more than 20 passages. The optimal seeding densities for each of the cell lines at each time point assessed were determined prior to performing the concentration response studies. Briefly, the NCI60 human tumor lines were grown as monolayers in RPMI 1640 medium supplemented with 10% FBS and 2 mmol/L L-glutamine.
An additional 2 lines were from the NCI60 cell line panel including melanomas, MALME-3M and SK-MEL-2. Pooled donor human umbilical vein endothelial cells (HUVEC, Lonza, cat. CC-2519) and human mesenchymal stem cells (hMSC, Lonza, cat. PT-2501) were purchased from Lonza (Walkersville, MD).
PDMR cell lines were grown in complete medium (DC medium): Dulbecco's modified Eagle's medium (DMEM)/F12 supplemented with 5% fetal bovine serum (FBS), 2 mM L-glutamine, 100 U/mL penicillin and 100 µg/ml streptomycin, 0.4 µg/ml hydrocortisone, 10 ng/ml epidermal growth factor (EGF) recombinant human protein, 24 µg/mL adenine, and 0.1 mg/mL primocin. During culture from frozen stock vials, PDMR cells were cultured in the same medium containing 10 µM Y-27632 (see Table 3). The PDCs were cultured in complete DMEM/F12 media without 10 microM Y-27632 dihydrochloride for at least two passages prior to the screen. The pooled donor HUVEC and hMSC were cultured in endothelial cell growth medium 2 (PromoCell, Heidelberg, Germany, cat. C-22011) and mesenchymal stem cell growth medium 2 (PromoCell, cat. C-28009), respectively. For all experiments, HUVEC and hMSC were used at passages </=5.
For the pre-screen, cell seeding densities were determined from a titration spanning the range from 5,000 to 313 cells per well. The mct-spheroids including 60% malignant cells, 25% HUVEC and 15% MSC dispensed as a mixture into U-bottom Ultra-Low Attachment 384-well plates (Corning, NY)
High-throughput Drug Combination Screening.
Prior to their inoculation into 384-well plates, malignant cells, HUVEC, and hMSC were removed from T flasks using TrypLE express (Thermo Fisher Scientific, cat. 12605036) and harvested by centrifugation for 5 min at 233 x g. […]

[1] = second compound 0.3 µM, first compound 0.0316 µM
[2] = second compound 0.3 µM, first compound 0.1 µM
[3] = second compound 0.949 µM, first compound 0.0316 µM
[4] = second compound 0.949 µM, first compound 0.1 µM
[5] = second compound 3 µM, first compound 0.0316 µM
[6] = second compound 3 µM, first compound 0.1 µM
[7] = second compound 9.49 µM, first compound 0.0316 µM
[8] = second compound 9.49 µM, first compound 0.1 µM
[9] = second compound 30 µM, first compound 0.0316 µM
[10] = second compound 30 µM, first compound 0.1 µM

Q: How did the IC50 (second compound 0.3 µM) turn out when `CC(C)(C)c1nc(-c2cccc(NS(=O)(=O)c3c(F)cccc3F)c2F)c(-c2ccnc(N)n2)s1` + CC(C)NCC(C(=O)N1CCN(c2ncnc3c2C(C)CC3O)CC1)c1ccc(Cl)cc1 was run?
A: 590 nM

Q: And the IC50 (second compound 0.949 µM)?
A: 496 nM

Q: And the IC50 (second compound 3 µM)?
A: 323 nM

Q: And the IC50 (second compound 9.49 µM)?
A: 285 nM

Q: What about the IC50 (second compound 30 µM) of the same compound?
A: 230 nM

Q: And the viability, T/C [1]?
A: 138%

Q: And the viability, T/C [2]?
A: 118%

Q: What about the viability, T/C (second compound 0.3 µM, first compound 0.316 µM) of the same compound?
A: 75.9%

Q: And the viability, T/C (second compound 0.3 µM, first compound 1 µM)?
A: 28.6%

Q: And the viability, T/C (second compound 0.3 µM, first compound 3.16 µM)?
A: 12.5%

Q: What about the viability, T/C (second compound 0.3 µM, first compound 10 µM) of the same compound?
A: 17.2%

Q: And the viability, T/C [3]?
A: 119%

Q: And the viability, T/C [4]?
A: 109%

Q: What about the viability, T/C (second compound 0.949 µM, first compound 0.316 µM) of the same compound?
A: 66.3%

Q: And the viability, T/C (second compound 0.949 µM, first compound 1 µM)?
A: 25.6%

Q: What about the viability, T/C (second compound 0.949 µM, first compound 3.16 µM) of the same compound?
A: 8.33%

Q: And the viability, T/C (second compound 0.949 µM, first compound 10 µM)?
A: 15.6%

Q: And the viability, T/C [5]?
A: 108%

Q: What about the viability, T/C [6] of the same compound?
A: 105%

Q: What about the viability, T/C (second compound 3 µM, first compound 0.316 µM) of the same compound?
A: 50.1%

Q: And the viability, T/C (second compound 3 µM, first compound 1 µM)?
A: 15.7%

Q: What about the viability, T/C (second compound 3 µM, first compound 3.16 µM) of the same compound?
A: 6.41%

Q: And the viability, T/C (second compound 3 µM, first compound 10 µM)?
A: 11.7%

Q: What about the viability, T/C [7] of the same compound?
A: 88.1%

Q: What about the viability, T/C [8] of the same compound?
A: 85.5%

Q: What about the viability, T/C (second compound 9.49 µM, first compound 0.316 µM) of the same compound?
A: 46.5%

Q: And the viability, T/C (second compound 9.49 µM, first compound 1 µM)?
A: 9.65%

Q: And the viability, T/C (second compound 9.49 µM, first compound 3.16 µM)?
A: 4.3%

Q: What about the viability, T/C (second compound 9.49 µM, first compound 10 µM) of the same compound?
A: 10.2%

Q: And the viability, T/C [9]?
A: 73.1%

Q: And the viability, T/C [10]?
A: 73.8%

Q: And the viability, T/C (second compound 30 µM, first compound 0.316 µM)?
A: 41.1%

Q: What about the viability, T/C (second compound 30 µM, first compound 1 µM) of the same compound?
A: 9.6%

Q: And the viability, T/C (second compound 30 µM, first compound 3.16 µM)?
A: 5.11%

Q: What about the viability, T/C (second compound 30 µM, first compound 10 µM) of the same compound?
A: 10%

Q: Which IC50 (second compound 0.3 µM) does the source give for `CC(C)CC(NC(=O)CNC(=O)c1cc(Cl)ccc1Cl)B1OC(=O)CC(CC(=O)O)(C(=O)O)O1` (stereo not given) + CC(C)NCC(C(=O)N1CCN(c2ncnc3c2C(C)CC3O)CC1)c1ccc(Cl)cc1 here?
A: 17.1 nM

Q: And the IC50 (second compound 0.949 µM)?
A: 12.8 nM

Q: And the IC50 (second compound 3 µM)?
A: 5.07 nM

Q: And the IC50 (second compound 9.49 µM)?
A: 2.04 nM

Q: What about the IC50 (second compound 30 µM) of the same compound?
A: < 0.316 nM

Q: And the viability, T/C (second compound 0.3 µM, first compound 0.000316 µM)?
A: 94.8%

Q: And the viability, T/C (second compound 0.3 µM, first compound 0.001 µM)?
A: 94.7%

Q: What about the viability, T/C (second compound 0.3 µM, first compound 0.00316 µM) of the same compound?
A: 85%

Q: What about the viability, T/C (second compound 0.3 µM, first compound 0.01 µM) of the same compound?
A: 64.9%

Q: What about the viability, T/C [1] of the same compound?
A: 32.8%

Q: What about the viability, T/C [2] of the same compound?
A: 5.51%

Q: And the viability, T/C (second compound 0.949 µM, first compound 0.000316 µM)?
A: 81.3%

Q: What about the viability, T/C (second compound 0.949 µM, first compound 0.001 µM) of the same compound?
A: 76.5%

Q: And the viability, T/C (second compound 0.949 µM, first compound 0.00316 µM)?
A: 70.3%

Q: What about the viability, T/C (second compound 0.949 µM, first compound 0.01 µM) of the same compound?
A: 59.5%

Q: What about the viability, T/C [3] of the same compound?
A: 20.2%

Q: What about the viability, T/C [4] of the same compound?
A: 6.05%

Q: And the viability, T/C (second compound 3 µM, first compound 0.000316 µM)?
A: 70%

Q: What about the viability, T/C (second compound 3 µM, first compound 0.001 µM) of the same compound?
A: 67%

Q: And the viability, T/C (second compound 3 µM, first compound 0.00316 µM)?
A: 53.8%

Q: And the viability, T/C (second compound 3 µM, first compound 0.01 µM)?
A: 43.3%

Q: What about the viability, T/C [5] of the same compound?
A: 20.2%

Q: What about the viability, T/C [6] of the same compound?
A: 5.6%

Q: What about the viability, T/C (second compound 9.49 µM, first compound 0.000316 µM) of the same compound?
A: 52.6%

Q: And the viability, T/C (second compound 9.49 µM, first compound 0.001 µM)?
A: 55.7%

Q: And the viability, T/C (second compound 9.49 µM, first compound 0.00316 µM)?
A: 44.2%

Q: What about the viability, T/C (second compound 9.49 µM, first compound 0.01 µM) of the same compound?
A: 40.3%

Q: What about the viability, T/C [7] of the same compound?
A: 17.9%

Q: And the viability, T/C [8]?
A: 5.27%

Q: What about the viability, T/C (second compound 30 µM, first compound 0.000316 µM) of the same compound?
A: 47.8%

Q: What about the viability, T/C (second compound 30 µM, first compound 0.001 µM) of the same compound?
A: 47.5%

Q: And the viability, T/C (second compound 30 µM, first compound 0.00316 µM)?
A: 41.7%

Q: What about the viability, T/C (second compound 30 µM, first compound 0.01 µM) of the same compound?
A: 33.5%

Q: And the viability, T/C [9]?
A: 14.4%

Q: And the viability, T/C [10]?
A: 4.44%
